{"source": "patent US5043450A", "about": "“8-alkoxyquinolonecarboxylic acid and salts thereof” (priority 1986, dated 1991)", "assay_type_in_all_cases": "cell-based", "key": {"S. epidermidis IID 866": {"system": "S. epidermidis IID 866", "assay": "Antibacterial spectra, MIC", "details": "Staphylococcus epidermidis, IID866"}, "[1]": {"system": "Pseudomonas aeruginosa V-1", "assay": "Antibacterial spectra, MIC", "details": "V1"}, "[2]": {"system": "Acinetobacter anitratus IID 876", "assay": "Antibacterial spectra, MIC", "details": "Acinetobacter calcoaceticus, IID876"}, "P. cepacia GIFU 518": {"system": "P. cepacia GIFU 518", "assay": "Antibacterial spectra, MIC", "details": "Burkholderia cepacia, GIFU518"}, "B. distasonis 8503": {"system": "B. distasonis 8503", "assay": "Antibacterial spectra, MIC", "details": "Parabacteroides distasonis"}, "[3]": {"system": "Clostridium difficile I-E", "assay": "Antibacterial spectra, MIC", "details": "Clostridioides difficile"}, "B. fragilis 0558": {"system": "B. fragilis 0558", "assay": "Antibacterial spectra, MIC", "details": "Bacteroides fragilis"}, "P. mirabilis IID 994": {"system": "P. mirabilis IID 994", "assay": "Antibacterial spectra, MIC", "details": "Proteus mirabilis, IID994"}, "S. aureus Smith": {"system": "S. aureus Smith", "assay": "Antibacterial spectra, MIC", "details": "Staphylococcus aureus"}, "E. coli ATCC 10536": {"system": "E. coli ATCC 10536", "assay": "Antibacterial spectra, MIC", "details": "Escherichia coli, ATCC10536"}, "Pst. micros UPI 5464-1": {"system": "Pst. micros UPI 5464-1", "assay": "Antibacterial spectra, MIC", "details": "Parvimonas micra, UPI54641"}, "[4]": {"system": "Propionibacterium acens 11828", "assay": "Antibacterial spectra, MIC"}, "[5]": {"system": "Staphylococcus aureus 209 P", "assay": "Antibacterial spectra, MIC"}, "P. aeruginosa IID 1210": {"system": "P. aeruginosa IID 1210", "assay": "Antibacterial spectra, MIC", "details": "Pseudomonas aeruginosa, IID1210"}, "K. pneumoniae 1-220S": {"system": "K. pneumoniae 1-220S", "assay": "Antibacterial spectra, MIC", "details": "Klebsiella pneumoniae, 1220S"}, "[6]": {"system": "Enterobacter cloacae IID 977", "assay": "Antibacterial spectra, MIC", "details": "IID977"}, "[7]": {"system": "Klebsiella pneumoniae KY(GN)6445", "assay": "Antibacterial spectra, MIC"}, "[8]": {"system": "Serratia marcescens IID 618", "assay": "Antibacterial spectra, MIC", "details": "IID618"}, "[9]": {"system": "Citrobacter freundii IID 976", "assay": "Antibacterial spectra, MIC", "details": "IID976"}, "[10]": {"system": "Peptostreptococcus anaerobius KYA 27337", "assay": "Antibacterial spectra, MIC", "details": "KYA27337"}, "[11]": {"system": "Bacteroides fragilis GM 7000", "assay": "Antibacterial spectra, MIC", "details": "GM7000"}, "[12]": {"system": "Veillonella parvula KYA 10790", "assay": "Antibacterial spectra, MIC", "details": "KYA10790"}, "C. perfringens KYA 13123": {"system": "C. perfringens KYA 13123", "assay": "microbe, parasite or virus in culture", "details": "Clostridium perfringens, KYA13123"}, "B. fragilis 25285": {"system": "B. fragilis 25285", "assay": "Antibacterial spectra, MIC", "details": "Bacteroides fragilis"}, "Bacilus subtilis PCI 219": {"system": "Bacilus subtilis PCI 219", "assay": "Antibacterial spectra, MIC", "details": "Bacillus subtilis, PCI219"}, "[13]": {"system": "S. aureus IID 670 (Terajima)", "assay": "Antibacterial spectra, MIC", "details": "Staphylococcus aureus, IID670"}, "P. maltophilia GIFU 2491": {"system": "P. maltophilia GIFU 2491", "assay": "Antibacterial spectra, MIC", "details": "Stenotrophomonas maltophilia, GIFU2491"}, "[14]": {"system": "Salmonella enteritidis IID 604", "assay": "Antibacterial spectra, MIC", "details": "Salmonella enterica"}, "C. ramosum": {"system": "C. ramosum", "assay": "Antibacterial spectra, MIC", "details": "Thomasclavelia ramosa"}, "Shigella sonnei IID 969": {"system": "Shigella sonnei IID 969", "assay": "Antibacterial spectra, MIC", "details": "IID969, 10^6 cells/ml, Gram -", "procedure": "(§1) The antibacterial test was carried out according to the method designated by Japan Society of Chemotherapy."}, "[15]": {"system": "Proteus vulgaris IFO 3167", "assay": "Antibacterial spectra, MIC", "details": "IFO3167, 10^6 cells/ml, Gram -", "procedure": "as §1"}, "E. coli ML 4707": {"system": "E. coli ML 4707", "assay": "Antibacterial spectra, MIC", "details": "Escherichia coli, ML4707; 10^6 cells/ml; Gram -", "procedure": "as §1"}, "P. aeruginosa IFO 12689": {"system": "P. aeruginosa IFO 12689", "assay": "Antibacterial spectra, MIC", "details": "Pseudomonas aeruginosa, IFO12689"}, "[16]": {"system": "Escherichia coli NIHJ JC-2", "assay": "Antibacterial spectra, MIC", "details": "NIHJJC2"}, "[17]": {"system": "Fusobacterium mortiferum 4249", "assay": "Antibacterial spectra, MIC"}, "[18]": {"system": "Eubacterium lentum GAI 5242", "assay": "Antibacterial spectra, MIC", "details": "Eggerthella lenta, GAI5242"}, "B. vulgatus KYA 29327": {"system": "B. vulgatus KYA 29327", "assay": "Antibacterial spectra, MIC", "details": "Phocaeicola vulgatus, KYA29327"}, "[19]": {"system": "Yersinia enterocolitica IID 981", "assay": "Antibacterial spectra, MIC", "details": "IID981"}, "[20]": {"system": "Peptococcus magnus KY 017", "assay": "Antibacterial spectra, MIC", "details": "Finegoldia magna, KY017"}, "F. necrophorum S-45": {"system": "F. necrophorum S-45", "assay": "Antibacterial spectra, MIC", "details": "Fusobacterium necrophorum, S45"}, "[21]": {"system": "Alcaligenes faecalis 0114002", "assay": "Antibacterial spectra, MIC"}, "[22]": {"system": "B. thetaiotaomicron (0661)", "assay": "Antibacterial spectra, MIC", "details": "Bacteroides thetaiotaomicron"}, "[23]": {"system": "Morganella morganii IID 602", "assay": "Antibacterial spectra, MIC", "details": "IID602"}, "F. varium KYA 8501": {"system": "F. varium KYA 8501", "assay": "Antibacterial spectra, MIC", "details": "Fusobacterium varium, KYA8501"}}}
{"smiles": "COc1c(N2CCC(CN)C2)c(F)cc2c(=O)c(C(=O)O)cn(C3CC3)c12", "note": "(centres unmarked) [Exp. 7, 7-(3-aminomethyl-1-pyrrolidinyl)-1-cyclopropyl-6-fluoro-1,4-dihydro-8-methoxy-4-oxo-3-quinolinecarboxylic acid]", "values": [{"measurement": "MIC", "setting": "S. epidermidis IID 866", "value": 0.05, "unit": "µg/mL"}, {"measurement": "MIC", "setting": "[1]", "value": 0.2, "unit": "µg/mL"}, {"measurement": "MIC", "setting": "[2]", "value": 0.05, "unit": "µg/mL"}, {"measurement": "MIC", "setting": "P. cepacia GIFU 518", "value": 0.78, "unit": "µg/mL"}, {"measurement": "MIC", "setting": "B. distasonis 8503", "value": 0.78, "unit": "µg/mL"}, {"measurement": "MIC", "setting": "[3]", "value": 0.39, "unit": "µg/mL"}, {"measurement": "MIC", "setting": "B. fragilis 0558", "value": 0.2, "unit": "µg/mL"}, {"measurement": "MIC", "setting": "P. mirabilis IID 994", "value": 0.05, "unit": "µg/mL"}, {"measurement": "MIC", "setting": "S. aureus Smith", "value": 0.05, "unit": "µg/mL"}, {"measurement": "MIC", "setting": "E. coli ATCC 10536", "value": 0.05, "unit": "µg/mL"}, {"measurement": "MIC", "setting": "Pst. micros UPI 5464-1", "value": 0.1, "unit": "µg/mL"}, {"measurement": "MIC", "setting": "[4]", "value": 0.39, "unit": "µg/mL"}, {"measurement": "MIC", "setting": "[5]", "value": 0.025, "unit": "µg/mL"}, {"measurement": "MIC", "setting": "P. aeruginosa IID 1210", "value": 0.78, "unit": "µg/mL"}, {"measurement": "MIC", "setting": "K. pneumoniae 1-220S", "value": 0.1, "unit": "µg/mL"}, {"measurement": "MIC", "setting": "[6]", "value": 0.1, "unit": "µg/mL"}, {"measurement": "MIC", "setting": "[7]", "value": 0.05, "unit": "µg/mL"}, {"measurement": "MIC", "setting": "[8]", "value": 0.2, "unit": "µg/mL"}, {"measurement": "MIC", "setting": "[9]", "value": 0.05, "unit": "µg/mL"}, {"measurement": "MIC", "setting": "[10]", "value": 0.05, "unit": "µg/mL"}, {"measurement": "MIC", "setting": "[11]", "value": 0.39, "unit": "µg/mL"}, {"measurement": "MIC", "setting": "[12]", "value": 0.1, "unit": "µg/mL"}, {"measurement": "MIC", "setting": "C. perfringens KYA 13123", "value": 0.2, "unit": "µg/mL"}, {"measurement": "MIC", "setting": "B. fragilis 25285", "value": 0.2, "unit": "µg/mL"}, {"measurement": "MIC", "setting": "Bacilus subtilis PCI 219", "value": 0.025, "unit": "µg/mL"}, {"measurement": "MIC", "setting": "[13]", "value": 0.025, "unit": "µg/mL"}, {"measurement": "MIC", "setting": "P. maltophilia GIFU 2491", "value": 0.2, "unit": "µg/mL"}, {"measurement": "MIC", "setting": "[14]", "value": 0.05, "unit": "µg/mL"}, {"measurement": "MIC", "setting": "C. ramosum", "value": 0.78, "unit": "µg/mL"}, {"measurement": "MIC", "setting": "Shigella sonnei IID 969", "value": 0.05, "unit": "µg/mL"}, {"measurement": "MIC", "setting": "[15]", "value": 0.05, "unit": "µg/mL"}, {"measurement": "MIC", "setting": "E. coli ML 4707", "value": 0.05, "unit": "µg/mL"}, {"measurement": "MIC", "setting": "P. aeruginosa IFO 12689", "value": 0.78, "unit": "µg/mL"}, {"measurement": "MIC", "setting": "[16]", "value": 0.025, "unit": "µg/mL"}, {"measurement": "MIC", "setting": "[17]", "value": 0.2, "unit": "µg/mL"}, {"measurement": "MIC", "setting": "[18]", "value": 0.39, "unit": "µg/mL"}, {"measurement": "MIC", "setting": "B. vulgatus KYA 29327", "value": 0.39, "unit": "µg/mL"}, {"measurement": "MIC", "setting": "[19]", "value": 0.1, "unit": "µg/mL"}, {"measurement": "MIC", "setting": "[20]", "value": 0.05, "unit": "µg/mL"}, {"measurement": "MIC", "setting": "F. necrophorum S-45", "value": 0.2, "unit": "µg/mL"}, {"measurement": "MIC", "setting": "[21]", "value": 0.39, "unit": "µg/mL"}, {"measurement": "MIC", "setting": "[22]", "value": 0.39, "unit": "µg/mL"}, {"measurement": "MIC", "setting": "[23]", "value": 0.2, "unit": "µg/mL"}, {"measurement": "MIC", "setting": "F. varium KYA 8501", "value": 0.78, "unit": "µg/mL"}]}
